Assay results as given in paper PMC9120478 (Nature Communications, 2022).
Where a chain is given by its changes, count along the chain named. Values joined by “and” are separate entries in the source; they are usually repeats but may differ in a detail not shown here. Equal values may be shown once.

What was measured:
TRPV3-Y564A = target: T1, TRPV3-Y564A (Mus musculus, UniProt Q8K424, Y564A); assay: Fura-2 ratiometric Ca2+ uptake, inhibition of 2-APB-evoked response; format: cell-based
T1 construct: expressed in transfected cells; host or cells: HEK 293 S GnTI- cells (baculovirus transduction)
T1 sequence (Q8K424 1-791 Y564A): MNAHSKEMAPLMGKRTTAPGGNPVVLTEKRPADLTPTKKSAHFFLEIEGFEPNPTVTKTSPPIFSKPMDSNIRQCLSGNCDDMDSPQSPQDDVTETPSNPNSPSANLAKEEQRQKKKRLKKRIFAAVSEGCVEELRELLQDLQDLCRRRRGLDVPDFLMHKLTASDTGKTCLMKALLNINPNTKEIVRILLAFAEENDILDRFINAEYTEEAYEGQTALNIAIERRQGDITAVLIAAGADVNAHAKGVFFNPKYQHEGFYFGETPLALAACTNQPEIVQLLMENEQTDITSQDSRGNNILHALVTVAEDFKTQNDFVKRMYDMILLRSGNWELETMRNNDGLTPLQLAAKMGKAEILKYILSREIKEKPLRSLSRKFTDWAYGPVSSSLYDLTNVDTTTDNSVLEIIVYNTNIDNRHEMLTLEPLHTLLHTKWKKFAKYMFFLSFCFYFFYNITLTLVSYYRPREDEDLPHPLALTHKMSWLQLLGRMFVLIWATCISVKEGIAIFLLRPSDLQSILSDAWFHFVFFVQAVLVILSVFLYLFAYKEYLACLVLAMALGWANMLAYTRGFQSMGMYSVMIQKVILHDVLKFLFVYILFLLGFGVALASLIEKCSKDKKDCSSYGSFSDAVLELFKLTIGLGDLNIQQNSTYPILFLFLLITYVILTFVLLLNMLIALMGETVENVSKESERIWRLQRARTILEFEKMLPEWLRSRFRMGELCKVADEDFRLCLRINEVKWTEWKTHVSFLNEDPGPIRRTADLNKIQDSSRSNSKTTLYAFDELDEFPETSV
Protocol: The Y564A mutation increases affinity to the TRPV3 agonist 2-APB[42] and decreases affinity to the competitive antagonist osthole.
GFP-free C-terminally strep-tagged wild-type TRPV3, TRPV3-Y564A, TRPV3-Y594A, TRPV3-F633A, TRPV3-I663W, and TRPV3-F666A were expressed in HEK 293 S GnTI^− cells as previously described[41],[42],[53]. In short, 48 h after transduction, 1-ml aliquots of cell suspension were collected by centrifugation at 550 g for 5 min using an Eppendorf 5424 centrifuge. The cells were resuspended in the pre-warmed modified HEPES-buffered saline (HBS) containing 118 mM NaCl, 4.8 mM KCl, 1 mM MgCl2, 5 mM D-glucose, and 10 mM HEPES pH 7.4 and 5 μg/ml Fura-2 AM (Thermo Fisher Scientific) and incubated for 45 min at 37 °C. The Fura-2-loaded cells were then centrifuged for 5 min at 550 g, resuspended in the pre-warmed, modified HBS and incubated again for 30 min at 37 °C in the dark. […] The washed cell pellets were kept on ice in the dark before taking an aliquot for fluorescence measurements. […] Fluorescence measurements were conducted using a QuantaMaster 40 spectrofluorometer (Photon Technology International) at room temperature in a quartz cuvette under constant stirring. […] Changes in intracellular Ca^2+ were measured by taking the ratio of fluorescence emitted at 510 nm at the excitation wavelength of 340 nm and 380 nm. […]

TRPV3 [1] = target: T2, TRPV3 (Mus musculus, UniProt Q8K424); assay: 2-APB concentration dependence of TRPV3 activation at two dyclonine concentrations (Schild plot); format: cell-based; conditions: for TRPV3 activation by 2-APB in the presence of dyclonine (Schild plot source data): listed as Dyc
T2 construct: expressed in transfected cells; host or cells: HEK 293 S GnTI- cells (baculovirus transduction)
T2 sequence (Q8K424 1-791): T1 sequence (Q8K424 1-791 Y564A) with A564Y
Protocol: GFP-free C-terminally strep-tagged wild-type TRPV3, TRPV3-Y564A, TRPV3-Y594A, TRPV3-F633A, TRPV3-I663W, and TRPV3-F666A were expressed in HEK 293 S GnTI^− cells as previously described[41],[42],[53]. In short, 48 h after transduction, 1-ml aliquots of cell suspension were collected by centrifugation at 550 g for 5 min using an Eppendorf 5424 centrifuge. The cells were resuspended in the pre-warmed modified HEPES-buffered saline (HBS) containing 118 mM NaCl, 4.8 mM KCl, 1 mM MgCl2, 5 mM D-glucose, and 10 mM HEPES pH 7.4 and 5 μg/ml Fura-2 AM (Thermo Fisher Scientific) and incubated for 45 min at 37 °C. The Fura-2-loaded cells were then centrifuged for 5 min at 550 g, resuspended in the pre-warmed, modified HBS and incubated again for 30 min at 37 °C in the dark. The cells were subsequently pelleted and washed twice in the modified HBS. The washed cell pellets were kept on ice in the dark before taking an aliquot for fluorescence measurements. […] We used the lower CaCl2 concentration than before[42],[28] (2.5 mM) to minimize non-specific effects, which often appeared as a drift in the Fura-2 signal at high Ca^2+ concentration, presumably due to cell death as a result of calcium overload. Fluorescence measurements were conducted using a QuantaMaster 40 spectrofluorometer (Photon Technology International) at room temperature in a quartz cuvette under constant stirring. After 60 s since the beginning, the recording was paused and 2-APB was added. After the addition of 2-APB, the recording was continued for the additional 140 s. Changes in intracellular Ca^2+ were measured by taking the ratio of fluorescence emitted at 510 nm at the excitation wavelength of 340 nm and 380 nm. […] The data were processed using Origin 9.0 (OriginLab) software.

TRPV3 [2] = conditions: cited from earlier work

For `CCCCOc1ccc(C(=O)CCN2CCCCC2)cc1` [dyclonine, 1-(4-butoxyphenyl)-3-piperidin-1-ylpropan-1-one], the IC50 (TRPV3-Y564A; 200 µM 2-APB, n = 4, negative control mutant) was 31.5 ± 1 µM, the “nHill of inhibition curve, Y564A” value (TRPV3-Y564A; logistic fit, n = 4) was 2.33 ± 0.11 and the “TRPV3 activation by 2-APB in the presence of dyclonine (Schild plot source data)” value (from here on “TRPV3 activation by 2-APB”) (TRPV3 [1]; 60 mM Dyc, 2-APB Conc 20, single experiments) was 0.167 and 0.154 and 0.168. The “TRPV3 activation by 2-APB” value (TRPV3 [1]; 60 mM Dyc, 2-APB Conc 40, single experiments) was 0.144 and 0.213 and 0.179, the “TRPV3 activation by 2-APB” value (TRPV3 [1]; 60 mM Dyc, 2-APB Conc 80, single experiments) was 0.244 and 0.241 and 0.22 and the “TRPV3 activation by 2-APB” value (TRPV3 [1]; 60 mM Dyc, 2-APB Conc 160, single experiments) was 0.294 and 0.283. For the same compound, the “TRPV3 activation by 2-APB” value (TRPV3 [1]; 2-APB Conc 10, single experiments) was 0.194 and 0.175 and 0.157, the “TRPV3 activation by 2-APB” value (TRPV3 [1]; 2-APB Conc 20, single experiments) was 0.323 and 0.34 and 0.318 and the “TRPV3 activation by 2-APB” value (TRPV3 [1]; 2-APB Conc 40, single experiments) was 0.542 and 0.419 and 0.487. For the same compound, the “TRPV3 activation by 2-APB” value (TRPV3 [1]; 2-APB Conc 80, single experiments) was 0.804 and 0.786 and 0.853, the “competition between 2-APB and dyclonine (Schild plots)” value (TRPV3 [1]; 10 and 60 μM dyclonine) was “lack of obvious competition” and the temperature-dependence of inhibition (TRPV3 [2]; TRPV3 activation by an infrared laser) was “lack of temperature-dependence”. For the same compound, the “effect on TRPV3 currents evoked by heat” value (TRPV3 [2]) was “inhibits” and the “voltage-dependence of TRPV3 inhibition” value (TRPV3 [2]) was “no voltage-dependence”.
